Results as given in patent US12583846B2, “2H-benzopyran derivatives as CRAC inhibitors” (CISEN PHARMACEUTICAL CO., LTD, priority 2019, dated 2026).
Values belong to the molecule of their own block, whether it stands above or below them.

Tests used:
IL-2 = test: Inhibitory activity on cytokines: IL-2 in supernatant of anti-CD3/anti-CD28 stimulated hPBMC by CBA method; type: cell-based; details: Homo sapiens, 48 h, anti-CD3/anti-CD28, 2 days incubation
Method: (§1) Human peripheral blood mononuclear cells (hPBMC); supplier: HemaCare; Article Number: PB009C-2
(§2) 96-well plates were coated with 5 μg/mL anti-human CD3 antibody (in DPBS) at […] overnight at 4° C.
(§3) PBMC were removed from liquid nitrogen and immediately placed in a 37° C. water bath for recovery. To a 15 mL centrifuge tube, 5 mL culture medium (RPMI1640 culture medium+10% fetal bovine serum+1% non-essential amino acids+1% penicillin streptomycin+0.05 mM β-mercaptoethanol) was added, and the cell suspension was pipetted to the centrifuge tube, and the mixture was centrifuged at 320 g for 5 minutes. The cells were resuspended with culture medium and counted, and the cell concentration was then adjusted to 5×10^5 cells/mL with the culture medium, To the cell suspension was added anti-human CD28 antibody (final concentration 2 μg/mL), and the mixture was inoculated into a 96-well plate at 200 μL/well.
(§4) Compounds were prepared at the desired concentration and added to the cells. The mixture was incubated at 37° C., 5% CO2 for 2 days.
The standards were prepared according to the instructions of IL-2 and TNFα Flex Set kit. The supernatant of the cultured cells was diluted 5-fold with the buffer provided in the kit and added to a 96-well plate together with the standards. The plated was added with magnetic beads containing antibody from the kit, and incubated at room temperature for 1 hour. The fluorescein PE-labeled secondary antibody in the kit was added and incubated at room temperature for 2 hours. The average fluorescence intensity of the PE channel was detected by flow cytometry. Based on the average fluorescence intensity of the standards, the contents of IL-2 and TNF-α of the samples were calculated.

[1] = Pharmacokinetic evaluation experiment in mice (intravenous or intraperitoneal injection of compound 6); type: in vivo, C57BL/6 mice
Method: Purpose of the experiment: male C57BL/6 mice were used as test animals, and the plasma drug concentrations of the test compounds were determined by LC/MS/MS at different time points after intravenous or intraperitoneal injection. The pharmacokinetic behavior of the test compound in mice was studied to evaluate its pharmacokinetic characteristics.
Drug preparation: an appropriate amount of sample was weighed to prepare 0.3 mg/mL or 0.5 mg/mL clear solution with 40% PEG400+20% Solutol+40% H2O (volume ratio).
Administration scheme: two healthy male C57BL/6 mice purchased from Beijing Vital River Laboratory Animal Technology Co., Ltd. was on a normal diet. The intravenous injection group was administered with 0.5 mg/mL solution, with a dose volume of 2 mL/kg and a dose of 1 mg/kg. The intraperitoneal injection group was administered with 0.3 mg/mL solution, with a volume of 10 mL/kg and a dose of 3 mg/kg.
(§5) Procedure: after animal administration, 25 μL of blood was collected at 0.083, 0.25, 0.5, 1, 2, 4, 8, 12, and 24 hours, respectively and placed in a commercial anticoagulative tube pre-loaded with EDTA-K2. The tubes were centrifuged for 10 minutes to separate plasma and stored at −60° C. The content of target compound in plasma samples was determined by LC/MS/MS.

[2] = Pharmacokinetic evaluation in mice (intravenous administration of compound 18 or 22, 50 mg/kg); type: in vivo, C57BL/6 mice; details: for elimination in plasma after administration (in words): intravenous 50 mg/kg
Method: Purpose of the experiment: male C57BL/6 mice were used as test animals, and the LC/MS/MS method was applied to determine the plasma drug concentrations of the compounds at different time points after intravenous administration. The pharmacokinetic behavior of the compounds in mice was studied, and their pharmacokinetic characteristics were evaluated.
Drug preparation: an appropriate amount of sample was weighed to prepare 5 mg/mL of clear solution with sterile normal saline.
Administration scheme: two healthy male C57BL/6 mice purchased from Beijing Vital River Laboratory Animal Technology Co., Ltd. was on a normal diet, with a volume of 10 mL/kg and a dose of 50 mg/kg.
as §5, with “the corresponding compounds” for “target compound”

TNF-α = test: Inhibitory activity on cytokines: TNFα in supernatant of anti-CD3/anti-CD28 stimulated hPBMC by CBA method; type: cell-based; details: Homo sapiens, 48 h, anti-CD3/anti-CD28, 2 days incubation
Method: as §1, §2, §3, §4
The standards were prepared according to the instructions of IL-2 and TNFα Flex Set kit. […] The average fluorescence intensity of the PE channel was detected by flow cytometry. Based on the average fluorescence intensity of the standards, the contents of IL-2 and TNF-α of the samples were calculated.

[3] = tested on: bombesin-induced acute pancreatitis model in mice; test: Pharmacodynamic test of bombesin-induced acute pancreatitis in mice (compound 6); type: in vivo, C57BL/6 mice; details: compound 6 intraperitoneal 20 mg/kg; bombesin 50 μg/kg x 7; FIG. 2
Method: Purpose of the experiment: male C57BL/6 mice were used as test animals, and acute pancreatitis was induced by intraperitoneal injection of bombesin. The efficacy of compound 6 on acute pancreatitis was studied.
Drug preparation: an appropriate amount of sample was weighed, and compound 6 was prepared to a 4 mg/mL clear solution with 40% PEG-400+20% Solutol+40%+H2O (v/v).
Experiment scheme: healthy male C57BL/6 mice were injected with bombesin intraperitoneally to induce pancreatitis model, at a dose of 50 μg/kg each time, with 7 injections at an interval of 1 hour. One hour after the seventh injection of bombesin, serum was taken and the levels of amylase and lipase were measured. Compound 6 was administered by intraperitoneal injection at a dose of 20 mg/kg.
Experimental results: see FIG. 2. The levels of plasma amylase (AMY) and lipase (LPS) were analyzed by one-way ANOVA, * * indicates significant difference with G1 (P<0.01), * indicates significant difference with G1 (P<0.05).

[4] = Thermodynamic solubility test; type: physicochemical; details: for solubility in water (in words): conclusion of the thermodynamic solubility test
Method: About 2 mg of test compound was weighed into a whatman vial, and 450 μL of phosphate buffer (50 mM, pH=7.4) was added. The stopper of whatman vial was pressed to near the liquid level so that the filter membrane in the stopper is in uniform contact with the liquid level. The vial was shaken well up and down on vortex for two minutes, and the dissolution of test compound in the whatman vial was recorded. The whatman vial was shaken in a shaker at ambient temperature for 24 hours at a rotational speed of 600 r/min. The stopper of whatman vial was slowly pressed to the lowermost part to obtain the supernatant. […] A linear solution (3 standard solutions, 1, 20, 200 μM, n=1) was prepared with diluent. The supernatant was taken out, and 10 μL of the supernatant was accurately taken out and diluted 100 times. The obtained diluent and stock solution and linear solution were simultaneously put into HPLC for detection and analysis, and the results were calculated by an external standard method according to peak area and dilution factor.

[5] = male, C57BL/6, mouse, plasma, intravenous injection, 1 mg/kg
[6] = male, C57BL/6, mouse, plasma, ip, intraperitoneal injection, 3 mg/kg
[7] = administered compound itself in plasma, 50 mg/kg intravenous, mice, 50 mg/kg
[8] = male, C57BL/6, mouse, plasma, iv, 50 mg/kg, administered compound itself in plasma, 50 mg/kg intravenous, mice

Compound: O=C(Nc1cnc(-c2cc3oc(C4CC4)nc3cc2Cl)cn1)c1c(F)cccc1F [Compound 4]
- IC50 (IL-2): 280 nM

Compound: O=C(Nc1cnc(-c2cc3oc(C4CC4)cc3cc2Cl)cn1)c1c(F)cccc1F [Compound 6]
- plasma exposure and pharmacokinetic properties (in words) ([1]; intravenous and intraperitoneal routes): higher plasma exposure and desirable pharmacokinetic properties
- bioavailability ([1]; male, C57BL/6, mouse, plasma, intraperitoneal 3 mg/kg vs intravenous 1 mg/kg): 125%
- AUC(0-t) [1, 5]: 15.6 µM·h
- clearance [1, 5]: 2.05 mL/min/kg
- half-life [1, 5]: 10.6 h
- Vd ([1]; male, C57BL/6, mouse, plasma, intravenous injection, 1 mg/kg, read-out: Vdss): 1.77 L/kg
- AUC(0-t) [1, 6]: 62.7 µM·h
- Cmax [1, 6]: 5.53 µM
- Tmax [1, 6]: 2 h
- formation of compound 6 in plasma (in words) ([2]; from 5 min of administration of compound 18 or 22, mice): a large amount
- IC50 (IL-2): 63.8 nM
- IC50 (TNF-α): 138 nM
- serum amylase (AMY) level [3]: significantly reduce
- serum lipase (LPS) level [3]: significantly reduce

Compound: O=C(Nc1cnc(-c2cc3oc(C4COC4)cc3cc2Cl)cn1)c1c(F)cccc1F [Compound 17]
- IC50 (IL-2): 173 nM
- IC50 (TNF-α): 328 nM

Results, then the molecule that gave them:

- DNAUC0-last (exposure normalized to molar dose) [2, 7]: 0.69 µM·h
- AUC(0-t) [2, 8]: 57.2 µM·h
- clearance [2, 8]: 25.1 mL/min/kg
- half-life [2, 8]: 2.49 h
- Vd ([2]; male, C57BL/6, mouse, plasma, iv, 50 mg/kg, administered compound itself in plasma, 50 mg/kg intravenous, mice, read-out: Vdss): 0.84 L/kg
- elimination in plasma after administration (in words) ([2]; mice): rapidly eliminated
- solubility thermodynamic at 24 h ([4]; aqueous buffer, thermodynamic from solid, phosphate buffer 50 mM, pH 7.4, 24 hours, ambient temperature): > 200 µM
- solubility in water (in words) [4]: very good
Compound: O=C(c1c(F)cccc1F)N(COP(=O)(O)O)c1cnc(-c2cc3oc(C4CC4)cc3cc2Cl)cn1 [Compound 18]

- AUC0-last [2, 7]: 37.1 µM·h
- CL [2, 7]: 28.9 mL/min/kg
- DNAUC0-last (exposure normalized to molar dose) [2, 7]: 0.58 µM·h
- T1/2 [2, 7]: 2.53 h
- Vdss [2, 7]: 1.05 L/kg
- elimination in plasma after administration (in words) ([2]; mice): rapidly eliminated
- solubility in water (in words) [4]: very good
Compound: O=C(c1c(F)cccc1F)N(COP(=O)(O)O)c1cnc(-c2cc3oc(C4CC4)cc3cc2Cl)cn1 [Compound 22]

- solubility in water (in words) [4]: very good
Compound: O=C(c1c(F)cccc1F)N(COP(=O)(O)O)c1cnc(-c2cc3oc(C4CC4)cc3cc2Cl)cn1 [Compound 23]
